Measured values reported in patent publication US20230082430A1 (C4 Therapeutics, Inc., priority 2019, published 2023).
Like-named read-outs stand apart in the source and are kept apart here.

System: NCIH929.1 cells
Assay: Cell viability assay for Table 2 (CellTiter-Glo 2.0, ATP quantification, 96 hr)
Assay type: cell-based
Conditions: NCIH929.1 cell viability, 96 hr, top concentration 1 μM, 14 points half log titration, read-out: IC50
Text: Cell Viability Assay for Table 2
CellTiter-Glo® 2.0 Assay was purchased from Promega (Madison, Wis., USA). NCIH929.1 cell line was purchased from ATCC (Manassas, Va., USA). Cell culture flasks and 384-well microplates were acquired from VWR (Radnor, Pa., USA).

Row | Structure (SMILES) | IC50 (96 h) [nM] | IC50 [nM]
1 | CC1(CN2CCC(n3cc(Cc4ccc5c6c(cccc46)C(=O)N5C4CCC(=O)NC4=O)cn3)CC2)CC1 (single isomer, unassigned) [Compound 234, 3-[6-[[1-[1-[(1-methylcyclopropyl)methyl]-4-piperidyl]pyrazol-4-yl]methyl]-2-oxo-benzo[cd]indol-1-yl]piperidine-2,6-dione] | < 1 | –
2 | CC1(CN2CCC(n3cc(Cc4ccc5c6c(cccc46)C(=O)N5C4CCC(=O)NC4=O)cn3)CC2)CC1 (single isomer, unassigned) [Compound 235, 3-[6-[[1-[1-[(1-methylcyclopropyl)methyl]-4-piperidyl]pyrazol-4-yl]methyl]-2-oxo-benzo[cd]indol-1-yl]piperidine-2,6-dione] | – | < 1
3 | CC1(CN2CCC(n3cc(Cc4ccc5c6c(cccc46)C(=O)N5C4CCC(=O)NC4=O)cn3)CC2)CCC1 (single isomer, unassigned) [Compound 236, 3-[6-[[1-[1-[(1-methylcyclobutyl)methyl]-4-piperidyl]pyrazol-4-yl]methyl]-2-oxo-benzo[cd]indol-1-yl]piperidine-2,6-dione] | < 1 | –
4 | CC1(CN2CCC(n3cc(Cc4ccc5c6c(cccc46)C(=O)N5C4CCC(=O)NC4=O)cn3)CC2)CCC1 (single isomer, unassigned) [Compound 237, 3-[6-[[1-[1-[(1-methylcyclobutyl)methyl]-4-piperidyl]pyrazol-4-yl]methyl]-2-oxo-benzo[cd]indol-1-yl]piperidine-2,6-dione] | – | < 1
5 | CC1(n2cc(Cc3ccc4c5c(cccc35)C(=O)N4C3CCC(=O)NC3=O)cn2)CCN(C(=O)C23COC(C2)C3)CC1 (single isomer, unassigned) [Compound 238, 3-[6-[[1-[4-methyl-1-(2-oxabicyclo[2.1.1]hexane-4-carbonyl)-4-piperidyl]pyrazol-4-yl]methyl]-2-oxo-benzo[cd]indol-1-yl]piperidine-2,6-dione] | < 1 | –
6 | CC1(n2cc(Cc3ccc4c5c(cccc35)C(=O)N4C3CCC(=O)NC3=O)cn2)CCN(C(=O)C23COC(C2)C3)CC1 (single isomer, unassigned) [Compound 239, 3-[6-[[1-[4-methyl-1-(2-oxabicyclo[2.1.1]hexane-4-carbonyl)-4-piperidyl]pyrazol-4-yl]methyl]-2-oxo-benzo[cd]indol-1-yl]piperidine-2,6-dione] | – | < 1
7 | O=C1CCC(N2C(=O)c3cccc4c(Cc5cnn(C6CCN(C7CCC78CCC8)CC6)c5)ccc2c34)C(=O)N1 (single isomer, unassigned) [Compound 244, 3-{2-Oxo-6-[1-(1-spiro[3.3]hept-1-yl-piperidin-4-yl)-1H-pyrazol-4-ylmethyl]-2H-benzo[cd]indol-1-yl}-piperidine-2,6-dione] | < 1 | –
8 | O=C1CCC(N2C(=O)c3cccc4c(Cc5cnn(C6CCN(C7CCC78CCC8)CC6)c5)ccc2c34)C(=O)N1 (single isomer, unassigned) [Compound 245, 3-{2-Oxo-6-[1-(1-spiro[3.3]hept-1-yl-piperidin-4-yl)-1H-pyrazol-4-ylmethyl]-2H-benzo[cd]indol-1-yl}-piperidine-2,6-dione] | – | < 1
9 | O=C1CCC(N2C(=O)c3cccc4c(Cc5ccc(CN6CCN(c7ccc(Cl)cc7F)CC6)cc5)ccc2c34)C(=O)N1 (single isomer, unassigned) [Compound 254, 3-[6-[[4-[[4-(4-chloro-2-fluoro-phenyl)piperazin-1-yl]methyl]phenyl]methyl]-2-oxo-benzo[cd]indol-1-yl]-piperidine-2,6-dione] | < 1 | –
10 | O=C1CCC(N2C(=O)c3cccc4c(Cc5ccc(CN6CCN(c7ccc(Cl)cc7F)CC6)cc5)ccc2c34)C(=O)N1 (single isomer, unassigned) [Compound 255, 3-[6-[[4-[[4-(4-chloro-2-fluoro-phenyl)piperazin-1-yl]methyl]phenyl]methyl]-2-oxo-benzo[cd]indol-1-yl]piperidine-2,6-dione] | – | < 1
11 | O=C1CCC(N2C(=O)c3cccc4c(Cc5ccc(CN6CCN(c7ccc(F)cc7F)CC6)cc5)ccc2c34)C(=O)N1 (single isomer, unassigned) [Compound 256, 3-(6-(4-((4-(2,4-difluorophenyl)piperazin-1-yl)methyl)benzyl)-2-oxobenzo[cd]indol-1(2H)-yl)piperidine-2,6-dione] | < 1 | –
12 | O=C1CCC(N2C(=O)c3cccc4c(Cc5ccc(CN6CCN(c7ccc(F)cc7F)CC6)cc5)ccc2c34)C(=O)N1 (single isomer, unassigned) [Compound 257, 3-(6-(4-((4-(2,4-difluorophenyl)piperazin-1-yl)methyl)benzyl)-2-oxobenzo[cd]indol-1(2H)-yl)piperidine-2,6-dione] | – | < 1
13 | CC1(CN2CCC(n3cc(Cc4ccc5c6c(cccc46)C(=O)N5C4CCC(=O)NC4=O)cn3)CC23CC3)CCC1 (single isomer, unassigned) [Compound 274, 3-[6-[[1-[4-[(1-methylcyclobutyl)methyl]-4-azaspiro[2.5]octan-7-yl]pyrazol-4-yl]methyl]-2-oxo-benzo[cd]indol-1-yl]piperidine-2,6-dione] | < 1 | –
14 | CC(C1CCC1)N1CCC(n2cc(Cc3ccc4c5c(cccc35)C(=O)N4C3CCC(=O)NC3=O)cn2)CC1 (single isomer, unassigned) [Compound 280, 3-[6-[[1-[1-[1-cyclobutylethyl]-4-piperidyl]pyrazol-4-yl]methyl]-2-oxo-benzo[cd]indol-1-yl]piperidine-2,6-dione] | < 1 | –
15 | CC(C1CCC1)N1CCC(n2cc(Cc3ccc4c5c(cccc35)C(=O)N4C3CCC(=O)NC3=O)cn2)CC1 (single isomer, unassigned) [Compound 281, 3-[6-[[1-[1-[1-cyclobutylethyl]-4-piperidyl]pyrazol-4-yl]methyl]-2-oxo-benzo[cd]indol-1-yl]piperidine-2,6-dione] | – | < 1
16 | CC(C1CC1)N1CCC(n2cc(Cc3ccc4c5c(cccc35)C(=O)N4C3CCC(=O)NC3=O)cn2)CC1 (single isomer, unassigned) [Compound 282, 3-(6-((1-(1-(1-cyclopropylethyl)piperidin-4-yl)-1H-pyrazol-4-yl)methyl)-2-oxobenzo[cd]indol-1(2H)-yl)piperidine-2,6-dione] | < 1 | –
17 | CC(C1CC1)N1CCC(n2cc(Cc3ccc4c5c(cccc35)C(=O)N4C3CCC(=O)NC3=O)cn2)CC1 (single isomer, unassigned) [Compound 283, 3-(6-((1-(1-(1-cyclopropylethyl)piperidin-4-yl)-1H-pyrazol-4-yl)methyl)-2-oxobenzo[cd]indol-1(2H)-yl)piperidine-2,6-dione] | – | < 1
18 | CC(c1ccc(Cc2ccc3c4c(cccc24)C(=O)N3C2CCC(=O)NC2=O)cc1)N1CCN(c2ccccc2F)CC1 (single isomer, unassigned) [Compound 284, 3-[6-[[4-[1-[4-(2-fluorophenyl)piperazin-1-yl]ethyl]phenyl]methyl]-2-oxo-benzo[cd]indol-1-yl]piperidine-2,6-dione] | < 1 | –
19 | CC(c1ccc(Cc2ccc3c4c(cccc24)C(=O)N3C2CCC(=O)NC2=O)cc1)N1CCN(c2ccccc2F)CC1 (single isomer, unassigned) [Compound 285, 3-[6-[[4-[1-[4-(2-fluorophenyl)piperazin-1-yl]ethyl]phenyl]methyl]-2-oxo-benzo[cd]indol-1-yl]piperidine-2,6-dione] | – | < 1
